Test results: PubChem BioAssay (NCI)
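Interpolation was linear, between the two tested concentrations surrounding the appropriate level; five concentrations were tested over 48 hours in 96-well plates. GI50: concentration for 50% inhibition of growth. TGI: total growth inhibition.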

How the values were obtained:
Assay in all cases: NCI tumour cell line growth inhibition, 48 h; in the data active = GI50 below about 0.43 µM; inactive = the rest
NCI-H460 lung = test system: NCI-H460 lung
SF-539 CNS = test system: SF-539 CNS
HT29 colon = test system: HT29 colon
SF-268 CNS = test system: SF-268 CNS
HL-60(TB) leukemia = test system: HL-60(TB) leukemia
HCC-2998 colon = test system: HCC-2998 colon
U251 CNS = test system: U251 CNS
HS 578T breast = test system: HS 578T breast
SNB-19 CNS = test system: SNB-19 CNS
K-562 leukemia = test system: K-562 leukemia
SN12C renal = test system: SN12C renal
OVCAR-4 ovarian = test system: OVCAR-4 ovarian
T-47D breast = test system: T-47D breast
BT-549 breast = test system: BT-549 breast
MCF7 breast = test system: MCF7 breast
SK-MEL-2 melanoma = test system: SK-MEL-2 melanoma
RPMI-8226 leukemia = test system: RPMI-8226 leukemia
COLO 205 colon = test system: COLO 205 colon
MDA-MB-231 breast = test system: MDA-MB-231 breast
PC-3 prostate = test system: PC-3 prostate
UACC-257 melanoma = test system: UACC-257 melanoma
MALME-3M melanoma = test system: MALME-3M melanoma
OVCAR-8 ovarian = test system: OVCAR-8 ovarian
NCI-H23 lung = test system: NCI-H23 lung
IGROV1 ovarian = test system: IGROV1 ovarian
A498 renal = test system: A498 renal
SK-MEL-5 melanoma = test system: SK-MEL-5 melanoma
SNB-75 CNS = test system: SNB-75 CNS
SK-MEL-28 melanoma = test system: SK-MEL-28 melanoma
SK-OV-3 ovarian = test system: SK-OV-3 ovarian
A549 NSCLC = test system: A549 NSCLC
HOP-62 NSCLC = test system: HOP-62 NSCLC
786-0 renal = test system: 786-0 renal
ACHN renal = test system: ACHN renal
CAKI-1 renal = test system: CAKI-1 renal
M14 melanoma = test system: M14 melanoma
KM12 colon = test system: KM12 colon
NCI-H226 lung = test system: NCI-H226 lung
NCI-H522 lung = test system: NCI-H522 lung
SR leukemia = test system: SR leukemia
SW-620 colon = test system: SW-620 colon
NCI/ADR-RES ovarian = test system: NCI/ADR-RES ovarian
HCT-116 colon = test system: HCT-116 colon
OVCAR-5 ovarian = test system: OVCAR-5 ovarian
SF-295 CNS = test system: SF-295 CNS
OVCAR-3 ovarian = test system: OVCAR-3 ovarian
HOP-92 NSCLC = test system: HOP-92 NSCLC
TK-10 renal = test system: TK-10 renal
MDA-MB-435 = test system: MDA-MB-435
MOLT-4 leukemia = test system: MOLT-4 leukemia
CCRF-CEM leukemia = test system: CCRF-CEM leukemia
LOX IMVI melanoma = test system: LOX IMVI melanoma
UO-31 renal = test system: UO-31 renal
HCT-15 colon = test system: HCT-15 colon
RXF 393 renal = test system: RXF 393 renal
DU-145 prostate = test system: DU-145 prostate
UACC-62 melanoma = test system: UACC-62 melanoma

CC(C)OP(=O)(OC(C)C)c1ncc(-c2ccc(C(F)(F)F)cc2)c(NC2CCCCCC2)n1
inactive: GI50 (NCI-H460 lung) > 10 µM | GI50 (SF-539 CNS) > 10 µM | GI50 (HT29 colon) > 10 µM | GI50 (SF-268 CNS) > 10 µM | GI50 (HL-60(TB) leukemia) > 10 µM | GI50 (HCC-2998 colon) > 10 µM | GI50 (U251 CNS) > 10 µM | GI50 (HS 578T breast) > 10 µM | GI50 (SNB-19 CNS) > 10 µM | GI50 (K-562 leukemia) > 10 µM | GI50 (SN12C renal) > 10 µM | GI50 (OVCAR-4 ovarian) > 10 µM | GI50 (T-47D breast) > 10 µM | GI50 (BT-549 breast) > 10 µM | GI50 (MCF7 breast) > 10 µM | GI50 (SK-MEL-2 melanoma) > 10 µM | GI50 (RPMI-8226 leukemia) > 10 µM | GI50 (COLO 205 colon) > 10 µM | GI50 (MDA-MB-231 breast) > 10 µM | GI50 (PC-3 prostate) 9.51 µM | GI50 (UACC-257 melanoma) > 10 µM | GI50 (MALME-3M melanoma) > 10 µM | GI50 (OVCAR-8 ovarian) > 10 µM | GI50 (NCI-H23 lung) > 10 µM | GI50 (IGROV1 ovarian) > 10 µM | GI50 (A498 renal) > 10 µM | GI50 (SK-MEL-5 melanoma) > 10 µM | GI50 (SNB-75 CNS) > 10 µM | GI50 (SK-MEL-28 melanoma) > 10 µM | GI50 (SK-OV-3 ovarian) > 10 µM | GI50 (A549 NSCLC) > 10 µM | GI50 (HOP-62 NSCLC) > 10 µM | GI50 (786-0 renal) > 10 µM | GI50 (ACHN renal) > 10 µM | GI50 (CAKI-1 renal) > 10 µM | GI50 (M14 melanoma) > 10 µM | GI50 (KM12 colon) > 10 µM | GI50 (NCI-H226 lung) > 10 µM | GI50 (NCI-H522 lung) > 10 µM | GI50 (SR leukemia) > 10 µM | GI50 (SW-620 colon) > 10 µM | GI50 (NCI/ADR-RES ovarian) > 10 µM | GI50 (HCT-116 colon) > 10 µM | GI50 (OVCAR-5 ovarian) > 10 µM | GI50 (SF-295 CNS) > 10 µM | GI50 (OVCAR-3 ovarian) > 10 µM | GI50 (HOP-92 NSCLC) > 10 µM | GI50 (TK-10 renal) > 10 µM | GI50 (MDA-MB-435) > 10 µM | GI50 (MOLT-4 leukemia) > 10 µM | GI50 (CCRF-CEM leukemia) > 10 µM | GI50 (LOX IMVI melanoma) > 10 µM | GI50 (UO-31 renal) > 10 µM | GI50 (HCT-15 colon) > 10 µM | GI50 (RXF 393 renal) > 10 µM | GI50 (DU-145 prostate) > 10 µM | GI50 (UACC-62 melanoma) > 10 µM
> 10 µM: TGI (NCI-H460 lung) | TGI (SF-539 CNS) | TGI (HT29 colon) | TGI (SF-268 CNS) | TGI (HL-60(TB) leukemia) | TGI (HCC-2998 colon) | TGI (U251 CNS) | TGI (HS 578T breast) | TGI (SNB-19 CNS) | TGI (K-562 leukemia) | TGI (SN12C renal) | TGI (OVCAR-4 ovarian) | TGI (T-47D breast) | TGI (BT-549 breast) | TGI (MCF7 breast) | TGI (SK-MEL-2 melanoma) | TGI (RPMI-8226 leukemia) | TGI (COLO 205 colon) | TGI (MDA-MB-231 breast) | TGI (PC-3 prostate) | TGI (UACC-257 melanoma) | TGI (MALME-3M melanoma) | TGI (OVCAR-8 ovarian) | TGI (NCI-H23 lung) | TGI (IGROV1 ovarian) | TGI (A498 renal) | TGI (SK-MEL-5 melanoma) | TGI (SNB-75 CNS) | TGI (SK-MEL-28 melanoma) | TGI (SK-OV-3 ovarian) | TGI (A549 NSCLC) | TGI (HOP-62 NSCLC) | TGI (786-0 renal) | TGI (ACHN renal) | TGI (CAKI-1 renal) | TGI (M14 melanoma) | TGI (KM12 colon) | TGI (NCI-H226 lung) | TGI (NCI-H522 lung) | TGI (SR leukemia) | TGI (SW-620 colon) | TGI (NCI/ADR-RES ovarian) | TGI (HCT-116 colon) | TGI (OVCAR-5 ovarian) | TGI (SF-295 CNS) | TGI (OVCAR-3 ovarian) | TGI (HOP-92 NSCLC) | TGI (TK-10 renal) | TGI (MDA-MB-435) | TGI (MOLT-4 leukemia) | TGI (CCRF-CEM leukemia) | TGI (LOX IMVI melanoma) | TGI (UO-31 renal) | TGI (HCT-15 colon) | TGI (RXF 393 renal) | TGI (DU-145 prostate) | TGI (UACC-62 melanoma)
